Experimental data reported in US8592629B2, “Sulfonamide derivatives as Nav 1.7 inhibitors” (Pfizer Limited, priority 2010, dated 2013).
Structures can show the parent of a compound that is named as a salt.

Target: T1, Nav1.7 (or SCN9A) channel (Homo sapiens, UniProt Q15858)
T1 construct: expressed in transfected cells
Assay: Nav1.7 (hSCN9A) block in HEK cells, PatchXpress 7000 automated electrophysiology, estimated IC50 (EIC50)
Assay type: cell-based
Details: PatchXpress assay; HEK cells stably transfected with hSCN9A, voltage-clamped at V1/2 of inactivation
Procedure, shortened: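 Stable hSCN9A HEK cells voltage-clamped at empirically determined inactivation V1/2 (8 s prepulse), current activated by 20 msec step to 0 mV; % inhibition from current before vs after compound. EIC50 derived from single-point data as concentration × (100−%inhibition)/%inhibition, excluding <20% and >80% inhibition; PatchXpress unless stated.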

T1 sequence (Q15858 whole entry): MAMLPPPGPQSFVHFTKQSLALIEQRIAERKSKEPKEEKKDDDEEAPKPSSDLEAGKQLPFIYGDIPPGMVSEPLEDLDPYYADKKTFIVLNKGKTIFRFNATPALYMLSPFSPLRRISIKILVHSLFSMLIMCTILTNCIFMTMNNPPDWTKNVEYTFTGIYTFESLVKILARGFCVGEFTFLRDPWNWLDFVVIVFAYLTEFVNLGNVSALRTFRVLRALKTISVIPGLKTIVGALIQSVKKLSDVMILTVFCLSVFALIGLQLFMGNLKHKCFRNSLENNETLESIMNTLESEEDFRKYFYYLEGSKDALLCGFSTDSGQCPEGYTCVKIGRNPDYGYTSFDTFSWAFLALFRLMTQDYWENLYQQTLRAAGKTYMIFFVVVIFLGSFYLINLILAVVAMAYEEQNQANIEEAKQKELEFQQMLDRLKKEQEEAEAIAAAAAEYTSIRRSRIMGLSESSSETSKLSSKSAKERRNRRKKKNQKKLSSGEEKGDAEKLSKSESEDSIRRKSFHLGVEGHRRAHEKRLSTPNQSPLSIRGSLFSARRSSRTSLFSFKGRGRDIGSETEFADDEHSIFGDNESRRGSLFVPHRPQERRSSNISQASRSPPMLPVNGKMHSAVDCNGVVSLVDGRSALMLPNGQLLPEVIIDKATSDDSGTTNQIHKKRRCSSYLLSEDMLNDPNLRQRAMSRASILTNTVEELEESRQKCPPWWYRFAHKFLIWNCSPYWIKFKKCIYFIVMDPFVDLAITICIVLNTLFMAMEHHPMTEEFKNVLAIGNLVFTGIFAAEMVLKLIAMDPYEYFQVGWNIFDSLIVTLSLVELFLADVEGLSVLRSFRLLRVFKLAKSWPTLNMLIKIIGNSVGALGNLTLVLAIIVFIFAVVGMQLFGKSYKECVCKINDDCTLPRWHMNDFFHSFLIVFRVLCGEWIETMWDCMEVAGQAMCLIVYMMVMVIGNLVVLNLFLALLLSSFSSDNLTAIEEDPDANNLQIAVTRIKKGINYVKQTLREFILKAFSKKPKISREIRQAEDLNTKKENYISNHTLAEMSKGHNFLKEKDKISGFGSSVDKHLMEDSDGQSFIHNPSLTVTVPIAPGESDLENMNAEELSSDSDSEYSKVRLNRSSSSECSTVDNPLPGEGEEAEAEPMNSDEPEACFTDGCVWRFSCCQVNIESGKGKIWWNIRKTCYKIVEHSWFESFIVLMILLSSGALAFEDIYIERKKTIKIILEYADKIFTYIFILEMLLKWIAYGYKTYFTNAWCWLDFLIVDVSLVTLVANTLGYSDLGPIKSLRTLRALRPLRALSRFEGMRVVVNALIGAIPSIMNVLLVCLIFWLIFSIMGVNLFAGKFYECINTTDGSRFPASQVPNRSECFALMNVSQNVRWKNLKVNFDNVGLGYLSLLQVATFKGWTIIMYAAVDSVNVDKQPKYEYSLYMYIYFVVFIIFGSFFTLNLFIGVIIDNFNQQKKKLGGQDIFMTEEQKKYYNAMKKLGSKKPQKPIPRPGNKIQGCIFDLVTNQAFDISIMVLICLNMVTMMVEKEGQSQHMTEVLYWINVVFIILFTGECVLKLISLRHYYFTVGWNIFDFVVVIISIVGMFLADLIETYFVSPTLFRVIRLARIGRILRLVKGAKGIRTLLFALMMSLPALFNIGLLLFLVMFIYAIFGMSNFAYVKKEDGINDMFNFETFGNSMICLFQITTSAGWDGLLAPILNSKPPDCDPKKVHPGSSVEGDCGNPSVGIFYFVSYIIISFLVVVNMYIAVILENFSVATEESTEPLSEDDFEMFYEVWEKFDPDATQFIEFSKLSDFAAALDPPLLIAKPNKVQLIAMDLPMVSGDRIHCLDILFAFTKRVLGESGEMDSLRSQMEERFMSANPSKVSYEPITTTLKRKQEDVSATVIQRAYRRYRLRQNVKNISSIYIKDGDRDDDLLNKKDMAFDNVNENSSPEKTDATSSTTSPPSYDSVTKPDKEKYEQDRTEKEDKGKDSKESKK

| IC50 [nM] | Structure (SMILES) |
| --- | --- |
| 560 | CC(F)(F)c1ncc(Oc2cc(F)c(C(=O)NS(C)(=O)=O)cc2Cl)cc1Cl [Example 44, 5-chloro-4-{[5-chloro-6-(1,1-difluoroethyl)pyridin-3-yl]oxy}-2-fluoro-N-(methylsulfonyl)benzamide] |
| 54 | CS(=O)(=O)NC(=O)c1cc(F)c(Oc2cnc(NCC3CCC3)c(Cl)c2)cc1F [Example 115, 4-({5-chloro-6-[(cyclobutylmethyl)amino]pyridin-3-yl}oxy)-2,5-difluoro-N-(methylsulfonyl)benzamide] |
| 220 | CS(=O)(=O)NC(=O)c1cc(F)c(Oc2cnc(OCC(F)(F)F)c(Cl)c2)cc1F [Example 27, 4-{[5-chloro-6-(2,2,2-trifluoroethoxy)pyridin-3-yl]oxy}-2,5-difluoro-N-(methylsulfonyl)benzamide] |
| 170 | CS(=O)(=O)NC(=O)c1cc(F)c(Oc2cnc(N3CCCCC3)c(Cl)c2)cc1F [Example 142, 4-[(5-chloro-6-piperidin-1-ylpyridin-3-yl)oxy]-2,5-difluoro-N-(methylsulfonyl)benzamide] |
| 960 | COC1(C)CN(c2ncc(Oc3cc(F)c(C(=O)NS(C)(=O)=O)cc3F)cc2Cl)C1 [Example 125, 4-{[5-chloro-6-(3-methoxy-3-methylazetidin-1-yl)pyridin-3-yl]oxy}-2,5-difluoro-N-(methylsulfonyl)benzamide] |
| > 1000 | COc1c(F)c(Oc2cnc(OC(C)C)c(Cl)c2)cc(F)c1C(=O)NS(C)(=O)=O [Example 72, 4-[(5-chloro-6-isopropoxypyridin-3-yl)oxy]-3,6-difluoro-2-methoxy-N-(methylsulfonyl)benzamide] |
| > 10000 | COc1ncc(Oc2ccc(C(=O)NS(C)(=O)=O)cc2)cc1Cl [Example 85, 4-[(5-chloro-6-methoxypyridin-3-yl)oxy]-N-(methylsulfonyl)benzamide] |
| 400 | CS(=O)(=O)NC(=O)c1cc(F)c(Oc2cnc(N3C[C@@H](F)[C@H](F)C3)c(Cl)c2)cc1F [Example 119, 4-({5-chloro-6-[(3R,4R)-3,4-difluoropyrrolidin-1-yl]pyridin-3-yl}oxy)-2,5-difluoro-N-(methylsulfonyl)benzamide] |
| 650 | CS(=O)(=O)NC(=O)c1cc(F)c(Oc2cnc(OC3CCC(F)(F)CC3)c(Cl)c2)cc1F [Example 65, 4-({5-chloro-6-[(4,4-difluorocyclohexyl)oxy]pyridin-3-yl}oxy)-2,5-difluoro-N-(methylsulfonyl)benzamide] |
| 71 | CS(=O)(=O)NC(=O)c1cc(F)c(Oc2cnc(N3C[C@H]4CC[C@@H]3C4)c(Cl)c2)cc1F [Example 131, 4-({6-[(1R,4S)-2-azabicyclo[2.2.1]hept-2-yl]-5-chloropyridin-3-yl}oxy)-2,5-difluoro-N-(methylsulfonyl)benzamide] |
| 2300 | CC(C)Oc1ncc(Oc2cc(F)c(C(=O)NS(C)(=O)=O)c(F)c2F)cc1Cl [Example 29, 4-[(5-chloro-6-isopropoxypyridin-3-yl)oxy]-2,3,6-trifluoro-N-(methylsulfonyl)benzamide] |
| 830 | CC(C)Oc1ncc(Sc2cc(F)c(C(=O)NS(C)(=O)=O)cc2Cl)cc1Cl [Example 94, 5-chloro-4-[(5-chloro-6-isopropoxypyridin-3-yl)thio]-2-fluoro-N-(methylsulfonyl)benzamide] |
| 15 | CS(=O)(=O)NC(=O)c1cc(Cl)c(Oc2cnc(OC(C(F)(F)F)C(F)(F)F)c(Cl)c2)cc1F [Example 77, 5-chloro-4-({5-chloro-6-[2,2,2-trifluoro-1-(trifluoromethyl)ethoxy]pyridin-3-yl}oxy)-2-fluoro-N-(methylsulfonyl)benzamide] |
| 67 | CC(F)(F)Oc1cc(Oc2cc(F)c(C(=O)NS(C)(=O)=O)cc2Cl)cnc1C1CC1 [Example 104, 5-chloro-4-(6-cyclopropyl-5-(1,1-difluoroethoxy)pyridin-3-yloxy)-2-fluoro-N-(methylsulfonyl)benzamide hydrochloride salt] |
| 260 | CS(=O)(=O)NC(=O)c1cc(Cl)c(Oc2cnc(OC(CF)CF)c(Cl)c2)cc1F [Example 53, 5-chloro-4-({5-chloro-6-[2-fluoro-1-(fluoromethyl)ethoxy]pyridin-3-yl}oxy)-2-fluoro-N-(methylsulfonyl)benzamide] |
| > 10000 | CS(=O)(=O)NC(=O)c1cc(F)c(Oc2cnc(C(F)(F)F)nc2)cc1F [Example 26, 2,5-difluoro-N-(methylsulfonyl)-4-{[2-(trifluoromethyl)pyrimidin-5-yl]oxy}benzamide] |
| 19 | CS(=O)(=O)NC(=O)c1cc(Cl)c(Oc2cnc(C3CCC3)c(Cl)c2)cc1F [Example 112, 5-chloro-4-(5-chloro-6-cyclobutylpyridin-3-yloxy)-2-fluoro-N-(methylsulfonyl)benzamide] |
| 650 | CS(=O)(=O)NC(=O)c1cc(F)c(Oc2cnc(OCC(F)F)c(Cl)c2)cc1F [Example 66, 4-{[5-chloro-6-(2,2-difluoroethoxy)pyridin-3-yl]oxy}-2,5-difluoro-N-(methylsulfonyl)benzamide] |

| IC50 [nM] | Structure (SMILES) |
| --- | --- |
| 41 | CC(C)Oc1ncc(Oc2cc(F)c(C(=O)NS(C)(=O)=O)cc2F)cc1Cl [Example 3, 4-[(5-Chloro-6-isopropoxypyridin-3-yl)oxy]-2,5-difluoro-N-(methylsulfonyl)benzamide] |
| 7600 | CN1CCC(Oc2ncc(Oc3cc(F)c(C(=O)NS(C)(=O)=O)cc3Cl)cc2Cl)CC1 [Example 30, 5-chloro-4-({5-chloro-6-[(1-methylpiperidin-4-yl)oxy]pyridin-3-yl}oxy)-2-fluoro-N-(methylsulfonyl)benzamide] |
| 140 | CS(=O)(=O)NC(=O)c1cc(Cl)c(Oc2cnc(OC3CCOCC3)c(Cl)c2)cc1F [Example 37, 5-chloro-4-{[5-chloro-6-(tetrahydro-2H-pyran-4-yloxy)pyridin-3-yl]oxy}-2-fluoro-N-(methylsulfonyl)benzamide] |
| 140 | CC(C)CN(C)c1ncc(Oc2cc(F)c(C(=O)NS(C)(=O)=O)cc2F)cc1Cl [Example 135, 4-({5-chloro-6-[isobutyl(methyl)amino]pyridin-3-yl}oxy)-2,5-difluoro-N-(methylsulfonyl)benzamide] |
| 12 | C[C@H](Oc1ncc(Oc2cc(F)c(C(=O)NS(C)(=O)=O)cc2Cl)cc1Cl)C(F)(F)F [Example 98, 5-chloro-4-({5-chloro-6-[(1S)-2,2,2-trifluoro-1-methylethoxy]pyridin-3-yl}oxy)-2-fluoro-N-(methylsulfonyl)benzamide] |
| 620 | CC(C)Oc1ncc(Oc2ccc(C(=O)NS(C)(=O)=O)cc2C#N)cc1Cl [Example 73, 4-[(5-chloro-6-isopropoxypyridin-3-yl)oxy]-3-cyano-N-(methylsulfonyl)benzamide] |
| 1600 | CS(=O)(=O)NC(=O)c1cc(F)c(Oc2cnc(NC3CC3)c(Cl)c2)cc1F [Example 140, 4-{[5-chloro-6-(cyclopropylamino)pyridin-3-yl]oxy}-2,5-difluoro-N-(methylsulfonyl)benzamide] |
| 4400 | CS(=O)(=O)NC(=O)c1cc(F)c(Oc2ccc(Cl)cn2)cc1F [Example 184, 4-[(5-chloropyridin-2-yl)oxy]-2,5-difluoro-N-(methylsulfonyl)benzamide] |
| 9900 | CN1CCC(Oc2ncc(Oc3cc(F)c(C(=O)NS(C)(=O)=O)cc3F)cc2Cl)CC1 [Example 67, 4-({5-chloro-6-[(1-methylpiperidin-4-yl)oxy]pyridin-3-yl}oxy)-2,5-difluoro-N-(methylsulfonyl)benzamide] |
| 780 | CS(=O)(=O)NC(=O)c1cc(F)c(Oc2cnc(OC3CCOCC3)c(Cl)c2)cc1F [Example 24, 4-{[5-chloro-6-(tetrahydro-2H-pyran-4-yloxy)pyridin-3-yl]oxy}-2,5-difluoro-N-(methylsulfonyl)benzamide] |
| 810 | CS(=O)(=O)NC(=O)c1cc(F)c(Oc2cnc(NC3CCCOC3)c(Cl)c2)cc1F (stereo not drawn) [Example 145, 4-{[5-chloro-6-(tetrahydro-2H-pyran-3-ylamino)pyridin-3-yl]oxy}-2,5-difluoro-N-(methylsulfonyl)benzamide] |
| 48 | CS(=O)(=O)NC(=O)c1cc(Cl)c(Oc2cnc(OC3CC3)c(Cl)c2)cc1F [Example 55, 5-chloro-4-{[5-chloro-6-(cyclopropyloxy)pyridin-3-yl]oxy}-2-fluoro-N-(methylsulfonyl)benzamide] |
| 160 | CS(=O)(=O)NC(=O)c1cc(F)c(Oc2cnc(C3CC3)c(Cl)c2)cc1F [Example 50, 4-[(5-chloro-6-cyclopropylpyridin-3-yl)oxy]-2,5-difluoro-N-(methylsulfonyl)benzamide] |
| > 3000 | CS(=O)(=O)NC(=O)c1cc(F)c(Oc2ncccc2C(F)(F)F)cc1F [Example 182, 2,5-difluoro-N-(methylsulfonyl)-4-{[3-(trifluoromethyl)pyridin-2-yl]oxy}benzamide] |
| 740 | CS(=O)(=O)NC(=O)c1cc(F)c(Oc2cnc(N3CC(F)(F)C3)c(Cl)c2)cc1F [Example 130, 4-{[5-chloro-6-(3,3-difluoroazetidin-1-yl)pyridin-3-yl]oxy}-2,5-difluoro-N-(methylsulfonyl)benzamide] |
| 290 | CC(C)c1ncc(Oc2cc(F)c(C(=O)NS(C)(=O)=O)cc2Cl)cc1Cl [Example 111, 5-Chloro-4-(5-chloro-6-isopropylpyridin-3-yloxy)-2-fluoro-N-(methylsulfonyl)benzamide] |
| 970 | CCC(C)S(=O)(=O)NC(=O)c1cc(F)c(Oc2cnc(OC)c(Cl)c2)cc1F (stereo not drawn) [Example 18, N-(sec-butylsulfonyl)-4-[(5-chloro-6-methoxypyridin-3-yl)oxy]-2,5-difluorobenzamide] |

| Structure (SMILES) | IC50 [nM] |
| --- | --- |
| CC(C)COc1ncc(Oc2cc(F)c(C(=O)NS(C)(=O)=O)cc2F)cc1Cl [Example 23, 4-[(5-chloro-6-isobutoxypyridin-3-yl)oxy]-2,5-difluoro-N-(methylsulfonyl)benzamide] | 39 |
